Laboratory results: patent US9080144B2, “Compositions and methods for promoting liposomal and cellular adhesion” (priority 2012, dated 2015)
“Also recorded” adds a separate entry of the source.

Assays:
[1] = tested on: fibroblasts (fbs); assay: Fluorescence labeling optimization of DOTAP concentration for liposome-cell fusion; format: cell-based; details: keto-LUVs with 0.5-5% DOTAP, 5% ketone; fbs 4 h; rhod-oxyamine 0.7 mM 2 h
Method: Cell-surface labeling. In an embodiment of the present application, oxime chemistry is used to tailor and fluorescently label cell surfaces via a novel liposome fusion strategy. As mentioned, cationic lipid, DOTAP, was incorporated within keto- and oxyamine-LUVs to initiate electrostatic destabilization and subsequent fusion to the cell membrane. As such, the minimum DOTAP concentration required to facilitate liposome-cell fusion was determined to be […] through fluorescence labeling optimization. Keto-LUVs were generated using DOTAP and POPC concentrations that ranged from 0.5% to 5% and 90% to 94.5%, respectively, while maintaining a 5-% ketone concentration. These liposomes were incubated with fibroblasts (fbs) for 4 h, conjugated with an oxyamine-tethered rhodamine (rhod-oxyamine, 8) (0.7 mM, 2 h), and the cell fluorescence intensities were then compared. […] The liposomes for liposome-cell fusion events were approximately ˜60 nm in diameter, similar to those used for the liposome-liposome fusion characterization.

[2] = tested on: fibroblasts (fbs); assay: Cell-surface engineering: fluorescent labeling of fbs by liposome fusion and oxime conjugation; format: cell-based, mouse; details: liposome fusion 2 h plus complementary oxime dye
Method: Two cell-surface engineering methods were employed to fluorescently label fbs. In this first method, a solution of oxyamine vc-LUVs (6, 3 mM) was incubated with a ketone-functionalized fluorescein (7, 0.15 mM, 1 eq, 2 h), forming fluorescently labeled liposomes. The liposomes were then added to fbs in culture for 2 h. After fusion, the cells were washed with PBS (3×2 mL), trypsinized (1 mL, 5 min, 37° C., 5% CO2), diluted with CBS-containing media (˜10^2/mL), and seeded to a glass substrate (1×1 cm^2, 2 h). The cells were then imaged under a fluorescence microscope with an exposure time of 1/1200 s. In the second method, a solution of keto-LUVs (5, 200 μL, 0.6 mM) was added to fbs in culture for 2 h, resulting in membrane fusion and subsequent display of ketones from the cell surface (9). Rhod-oxyamine (8, 100 μL, 0.7 mM in H2O) was then added the cells for 2 h. After oxime formation, the fbs were washed with PBS (3×2 mL), trypsinized (1 mL, 5 min, 37° C., 5% CO2), diluted with CBS-containing media (˜10^2/mL), and seeded to a glass substrate (1×1 cm^2, 2 h). The cells were then imaged under a fluorescence microscope with an exposure time of 1/1200 s (see FIG. 3).

| SMILES | minimum DOTAP concentration required to facilitate liposome-cell fusion [1] [%] | fluorescent labeling of fbs (microscopy) [2] |
| --- | --- | --- |
| CCCCCCCC/C=C\CCCCCCCC(=O)OCC(C[N+](C)(C)C)OC(=O)CCCCCCC/C=C\CCCCCCCC (centres unmarked) [DOTAP, 1,2-dioleoyl-3-trimethylammonium-propane] | 2 |  |
| CCN(CC)c1ccc2c(-c3ccc(S(=O)(=O)NCCCCNC(=O)CON)cc3S(=O)(=O)[O-])c3ccc(=[N+](CC)CC)cc-3oc2c1 [compound 8, 5-(N-(4-(2-(aminooxy)acetamido)butyl)sulfamoyl)-2-(6-(diethylamino)-3-(diethyliminio)-3H-xanthen-9-yl)benzenesulfonate] |  | fluorescence labeling of cells; also recorded: red fluorescent labeling of the cells |
